According to BindingDB's records for doi:10.1021/jm060662k (Abbott Laboratories, 2006):

Biological target: T1, D(4) dopamine receptor (Homo sapiens, UniProt P21917)
T1 sequence (P21917 whole entry): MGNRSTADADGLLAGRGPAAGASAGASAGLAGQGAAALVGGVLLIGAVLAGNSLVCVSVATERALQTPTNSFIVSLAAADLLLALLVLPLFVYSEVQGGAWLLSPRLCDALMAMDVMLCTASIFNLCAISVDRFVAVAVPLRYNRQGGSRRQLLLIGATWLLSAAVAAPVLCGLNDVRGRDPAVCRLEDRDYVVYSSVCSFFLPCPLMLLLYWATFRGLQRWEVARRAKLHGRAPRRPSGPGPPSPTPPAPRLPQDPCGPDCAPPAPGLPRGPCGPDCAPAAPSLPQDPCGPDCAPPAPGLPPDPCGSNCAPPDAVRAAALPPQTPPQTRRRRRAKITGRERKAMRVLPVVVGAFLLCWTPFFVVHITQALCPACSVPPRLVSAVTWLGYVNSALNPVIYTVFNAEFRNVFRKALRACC
Experiment: Agonist activity at human D4.4 receptor in HEK293 cells coexpressing G-alpha-qo5 by FLIPR

c1ccc(N2CCN(Cc3nc4ccccc4[nH]3)CC2)nc1 [2-((4-(pyridin-2-yl)piperazin-1-yl)methyl)-1H-benzo[d]imidazole]
EC50: 12 nM
